According to the NIST ThermoML archive (doi:10.1021/acs.jced.9b00327):

Tests used:
[1] = mn = molality of the nth substance listed, in mol/kg; conditions: 100 kPa, Liquid; for speed of sound: Single path-length method; for mass density: Vibrating tube method
[2] = 100 kPa, Liquid, Single path-length method

Cn1c(=O)c2c(ncn2C)n(C)c1=O [caffeine] + O
[1]
Conditions	mass density, m1 = 0.005 [kg/m3]	mass density, m1 = 0.01 [kg/m3]	mass density, m1 = 0.02 [kg/m3]	mass density, m1 = 0.04 [kg/m3]	mass density, m1 = 0.06 [kg/m3]	speed of sound, m1 = 0.005 [m/s]	speed of sound, m1 = 0.01 [m/s]	speed of sound, m1 = 0.02 [m/s]	speed of sound, m1 = 0.04 [m/s]	speed of sound, m1 = 0.06 [m/s]
293.15 K	998.731	998.986	999.492	1000.68	1001.78	1483	1483.5	1484	1485.1	1486.2
298.15 K	997.275	997.549	998.082	999.091	1000.02	1497.2	1497.6	1498	1499	1500.1
303.15 K	996.169	996.422	996.912	997.986	999.147	1509.5	1509.8	1510.3	1511.2	1512.1
308.15 K	994.279	994.556	995.092	996.095	997.015	1520.1	1520.4	1520.8	1521.6	1522.4
313.15 K	992.732	992.974	993.452	994.51	995.632	1529.1	1529.4	1529.8	1530.4	1531.2
318.15 K	990.833	990.981	991.327	992.156	992.958	1536.7	1537	1537.2	1537.8	1538.5

O [water]
[2]
Conditions	speed of sound [m/s]
313.15 K	1528.9
318.15 K	1536.5
